Columns and labels:
aldose reductase = target: T1, aldose reductase (Rattus norvegicus, UniProt P07943); test: Determination of Aldose Reductase-inhibiting Activity; assay type: biochemical, Wistar type male rat (crystalline lens); conditions: rat lens enzyme; 0.1 mM DL-glyceraldehyde, 0.03 mM NADPH, pH 7.0, 30° C., 30 minutes; read-out: 50% inhibition concentration (IC50)
T1 construct: From the crystalline lens, aldose reductase was prepared; from tissue; host or cells: crystalline lens of five-week old male Wistar rat
Description: A five-week old Wistar type male rat was sacrificed under anesthesia and immediately dissected to remove crystalline lens. From the crystalline lens, aldose reductase was prepared by following the Hyman et al's method [J. Biol. Chem., 240, 877-882 (1965)] with necessary modifications. The aldose reductase activity was determined by the Dufrane et al's method [Biochem. Med., 32, 99-105 (1984)]. In 400 μl of a 135 mM sodium-potassium phosphate buffer solution (pH 7.0) prepared in advance so as to contain 100 mM lithium sulfate, 0.03 mM NADPH (reducing type nicotinamide adenine dinucleotide phosphate), and 0.1 mM DL-glyceraldehyde as a substrate, 50 μl of the aforementioned aldose reductase and 50 μl of a sample of a varying concentration (having Compound 1, or Compound 2, or Compound 3 dissolved in ethanol) added thereto were left reacting at 30° C. for 30 minutes. Then, the reaction was stopped by addition of 0.15 ml of 0.5N hydrochloric acid. The NADP (oxide type nicotinamide adenine dinucleotide phosphate) produced by the reaction in the reaction mixture was converted into a fluorescent substance by the addition thereto of 0.5 ml of 6N sodium hydroxide containing 10 mM imidazole. After the elapse of 60 minutes following the conversion, the produced reaction mixture was tested for intensity of fluorescence. The intensity of fluorescence was determined by the use of a fluorescence tester (produced by Corona Denki K.K. and marketed under trademark designation of "MTP-100F Corona Microplate Reader") under the conditions of 360 nm of excitation wavelength and 460 nm of fluorescent wavelength. The intensity of fluorescence determined by repeating the procedure described above, except ethanol was added in the place of the sample was used as a control value. As the aldose reductase inhibiting activity of a sample, the concentration of the sample required for inhibiting 50% of the aldose reductase activity due to a decline of the intensity of fluorescence (i.e. 50% inhibition concentration: IC50 value) was obtained.

blood sugar = test: Blood sugar drop ratio in streptozotocin diabetic rats; assay type: in vivo, Wistar type male rats; conditions: oral, four days, blood 3 hours after administration
Description: (§1) Groups each of five three-week old Wistar type male rats were used for the test. To the rats, streptozotocin was administered at a concentration of 65 mg/kg via the tail vein. Of these rats, those whose blood sugar values fell in the range of from 250 to 650 mg/dl one week after the administration were designated as diabetic rats. As a control medicine, Compound 4 represented by the formula VII was used. [drawing 9]
(§2) The five groups, i.e. the group of untreated diabetic rats, the group of rats subjected to administration of control medicine (50 mg/kg×2/day), the group of rats subjected to administration of sample (100 mg/kg/day), and the group of normal rats, were tested. A given medicine was suspended in 5% gum arabic and orally administered continually for four days after the elapse of two weeks following the onset of diabetes. To the group of untreated diabetic rats and the group of normal rats, a 5% gum arabic solution […] was administered in a ratio of 10 ml/kg. After the elapse of three hours following the administration, the blood was extracted from each rat with the aid of heparin via the tail vein (for the determination of blood sugar) and the abdominal aorta.
The PRC was tested for sorbitol content by the Malon et al's method [Diabetes, 29, 861-864 (1980)]. The determination of the blood sugar value was carried out by the alucose-oxidase method.
The blood sugar drop ratio and the sorbitol accumulation inhibition ratio were calculated in accordance with Formula 1 and Formula 2.
Blood sugar drop ratio (%)=(1-[(Average blood sugar value of the group of rats subjected to administration of sample or control medicine-Average blood sugar value of the group of normal rats)/(Average blood sugar value of the group of untreated diabetic rats-Average blood sugar value of the group of normal rats)])×100

in vivo = conditions: mouse, oral, ICR type male mice (five-week old)
Description: The compounds 1, 2 and 3 of this invention were tested for acute toxicity by oral administration thereof to ICR type male mice (five-week old).

[1] = tested on: Sorbitol in Red Blood Cells; test: Action to Curb Accumulation of Sorbitol in Red Blood Cells (streptozotocin diabetic rats); assay type: in vivo, Wistar type male rats; conditions: control medicine 50 mg/kg×2/day, oral, four days; packed red cells, blood 3 hours after administration
Description: as §1
as §2, with “aorta. […]” for “aorta.”
The blood sugar drop ratio and the sorbitol accumulation inhibition ratio were calculated in accordance with Formula 1 and Formula 2. […]

| Structure (SMILES) | IC50 (aldose reductase) [nM] | Blood sugar drop ratio (blood sugar; sample 100 mg/kg/day) [%] | LD50 (in vivo) [mg/kg] | Blood sugar drop ratio (blood sugar; control medicine 50 mg/kg×2/day) [%] | Sorbitol accumulation inhibition ratio [1] [%] |
| --- | --- | --- | --- | --- | --- |
| O=C1NC(=O)C(Cc2ccc(C(=O)C=Cc3ccc(O)c(O)c3)cc2)S1 (centres unmarked) [Compound 1, 5-{4-[3-(3,4-dihydroxyphenyl)-2-propenoyl]benzyl}thiazolidine-2,4-dione] | 520 | 46.8 | ≥ 1000 | – | – |
| CC(=Cc1ccccc1)C=C1SC(=S)N(CC(=O)O)C1=O [Compound 4, reference compound] | – | – | – | 7.2 | 90.3 |
| COc1cc(C=CC(=O)c2ccc(CC3SC(=O)NC3=O)cc2)ccc1O (centres unmarked) [Compound 2, 5-{4-[3-(4-hydroxy-3-methoxyphenyl)-2-propenoyl]benzyl}thiazolidine-2,4-dione] | 4200 | 60.5 | ≥ 1000 | – | – |
| COc1cc(C=CC(=O)c2cccc(CC3SC(=O)NC3=O)c2)ccc1O (centres unmarked) [Compound 3, 5-{3-[3-(4-hydroxy-3-methoxyphenyl)-2-propenoyl]benzyl}thiazolidine-2,4-dione] | 1900 | 42.6 | ≥ 1000 | – | – |

Source: patent US5225426A, “Thiazolidine-2,4-dione compound and method of treatment of diabetic complications” (Terumo Kabushiki Kaisha, priority 1990, dated 1993)
